Assay results reported in PubChem BioAssay (NCI).
Several values for one entry are separate records, joined by “and”; a condition that tells them apart may be missing. Equal values may be shown once.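 Cells were grown in 96-well plates and exposed to each compound for 48 hours at five concentrations; endpoints were interpolated linearly between bracketing concentrations, or set to the highest concentration if not reached. Abbreviation: GI50, concentration required for 50% inhibition of growth. The concentration for full growth arrest is given as TGI.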

Experiments:
Assay in all cases: NCI-60 cell line screen, 48 h
[1] = tested on: HOP-92 NSCLC
[2] = tested on: OVCAR-3 ovarian
[3] = tested on: NCI-H460 lung
[4] = tested on: ACHN renal
[5] = tested on: HCT-116 colon
[6] = tested on: M14 melanoma
[7] = tested on: MDA-MB-435
[8] = tested on: UO-31 renal
[9] = tested on: SR leukemia
[10] = tested on: MDA-N
[11] = tested on: TK-10 renal

SMILES | TGI [1] [µM] | TGI [2] [µM] | TGI [3] [µM] | TGI [4] [µM] | TGI [5] [µM] | TGI [6] [µM] | TGI [7] [µM] | TGI [8] [µM] | TGI [9] [µM] | TGI [10] | TGI [11] [µM] | GI50 [10] [µM] | GI50 [1] [µM] | GI50 [2] [µM] | GI50 [11] [µM] | GI50 [3] [µM] | GI50 [4] [µM] | GI50 [7] [µM] | GI50 [8] [µM] | GI50 [9] [µM]
COC(=O)C1OC(O[C@H]2CC[C@]3(C)[C@H]4CC=C5[C@@H]6CC(C)(C)CC[C@]6(C(=O)OC)[C@H](O)C[C@@]5(C)[C@]4(C)CC[C@H]3C2(C)C)C(O)C(O)C1O (stereo not given in full) | 30.5 | 22.1 | 22.7 | 23.8 | 17 | 18.3 | 27.7 | 26.9 | 15.9 | 24.9 µM | – | – | – | – | – | – | – | – | – | –
COc1ccc(CNc2nc(NCc3ccc(OC)cc3)nc(Nc3ccccc3)n2)cc1 | > 100 | 6.94 | > 100 | > 100 | > 100 | > 100 | 5.7 | > 100 | 3.81 | – | > 100 | – | – | – | – | – | – | – | – | –
COC1(OC)N=C(N)C2(C#N)C(C)CC(=O)N(N(C)C)C12C#N (stereo not given) | > 100 | – | – | > 100 | > 100 | > 100 | > 100 | > 100 | > 100 | – | > 100 | – | – | – | – | – | – | – | – | –
Cc1cc2c(c3oc(C(O)(CO)C4CO4)cc(=O)c13)C(=O)c1c(O)cccc1C2=O (stereo not given) | 0.000983 | – | 0.00012 | 0.00524 | – | – | 0.0052 | – | 0.00227 | 0.00443 µM and 0.00515 µM | – | 0.00375 | – | – | – | – | – | – | – | –
OCCSCCCSCCO | 98.8 | > 100 | > 100 | – | > 100 | > 100 | – | > 100 | > 100 | > 100 µM | > 100 | – | – | – | – | – | – | – | – | –
Cc1cc(Cc2cc(C)c(NC(=O)C(=O)C3C(=O)NC(=S)NC3=O)c(C(C)C)c2)cc(C(C)C)c1NC(=O)C(=O)C1C(=O)NC(=S)NC1=O | > 100 | > 100 | > 100 | > 100 | > 100 | > 100 | – | > 100 | > 100 | – | > 100 | – | – | – | – | – | – | – | – | –
CN1N=C2c3ccccc3CC[C@H]2C1c1ccccc1 (stereo not given in full) | 77.9 | > 100 | > 100 | > 100 | > 100 | > 100 | – | > 100 | > 100 | – | > 100 | – | – | – | – | – | – | – | – | –
CCSc1nc2sc(C)c(C)c2c(=O)n1-c1ccc(C(=O)O)cc1 | > 100 | 74.4 | > 100 | > 100 | 74.3 | > 100 | – | > 100 | > 100 | – | > 100 | – | – | – | – | – | – | – | – | –
O=C1Oc2ccccc2C(=O)/C1=C/N1C(=O)/C(=C/c2ccc([N+](=O)[O-])cc2)SC1=S | 5.71 | 5.85 | 57.8 | 34 | 50.2 | 65.6 | 50.6 | – | > 100 | 46.7 µM | – | – | – | – | – | – | – | – | – | –
N#CCCC(CC#N)N1CCN(CCO)CC1 (stereo not given) | > 100 | – | > 100 | > 100 | > 100 | > 100 | > 100 | > 100 | > 100 | – | > 100 | – | – | – | – | – | – | – | – | –
COC(=O)C1=NN2c3ccccc3C(=O)OCCC2C1 (stereo not given) | > 100 | > 100 | > 100 | > 100 | > 100 | – | > 100 | > 100 | > 100 | > 100 µM | > 100 | – | – | – | – | – | – | – | – | –
Cn1c(C(C#N)c2cc(Cl)ncn2)nc2ccccc21 (stereo not given) | > 100 | > 100 | > 100 | > 100 | > 100 | > 100 | > 100 | > 100 | – | > 100 µM | > 100 | – | – | – | – | – | – | – | – | –
CO/N=C1\CCC2(O)C3Cc4ccc(O)c5c4C2(CCN3CC2CC2)[C@H]1O5 (stereo not given in full) | > 100 | > 100 | – | > 100 | > 100 | > 100 | > 100 | > 100 | > 100 | > 100 µM | > 100 | – | – | – | – | – | – | – | – | –
CC(C)(C)NC(NC(C)(C)C)=C(C(Cl)=C(Cl)Cl)[N+](=O)[O-] | – | > 100 | > 100 | > 100 | > 100 | > 100 | – | > 100 | > 100 | > 100 µM | > 100 | – | – | – | – | – | – | – | – | –
CC1=C(C2=C(C)C(=O)C(=O)c3cc(C)ccc32)c2ccc(C)cc2C(=O)C1=O | 0.398 | 0.323 | 0.531 | 0.354 | 1 | 0.349 | – | 0.305 | – | 0.347 µM | 1.2 | – | – | – | – | – | – | – | – | –
CC(SC(=S)N1CCCCC1)C(=O)Nc1nnc(-c2ccc(Cl)cc2)o1 (stereo not given) | > 100 | 64.2 | > 100 | > 100 | 40.3 | 53.7 | > 100 | 54 | – | – | > 100 | – | – | – | – | – | – | – | – | –
COc1cccc(NCC(=O)Nn2c(-c3ccccc3)nc3ccccc3c2=O)c1 | > 100 | > 100 | > 100 | > 100 | > 100 | > 100 | > 100 | > 100 | > 100 | – | > 100 | – | – | – | – | – | – | – | – | –
O=c1ccc2ccccc2o1 | > 100 | > 100 | > 100 | > 100 | > 100 | > 100 | – | > 100 | – | – | > 100 | – | – | – | – | – | – | – | – | –
CCOC(=O)CCC(NC(=O)c1ccc(CNc2nc3cc(N)cc(N)c3nc2-c2ccccc2)cc1)C(=O)OCC (stereo not given) | > 100 | > 100 | > 100 | > 100 | > 100 | > 61.6 | > 86.4 | > 100 | 23.7 | – | > 100 | – | – | – | – | – | – | – | – | –
CN1CCN(CC(=O)Nc2ccc3ncnc(Nc4ccc(Oc5cccc(C(F)(F)F)c5)c(Cl)c4)c3c2)CC1 | 2.46 | 2.87 | 3.29 | 2.33 | – | – | 2.97 | 2.46 | 2.2 | – | 2.83 | – | 1.09 | 1.49 | 1.25 | 1.74 | 1.12 | 1.58 | 1.2 | 0.371
Cc1ccc(C(=O)CC(Cl)=C(Cl)Cl)cc1 | > 100 | > 100 | > 100 | > 100 | > 100 | > 100 | > 100 | > 100 | 55.6 | – | > 100 | – | – | – | – | – | – | – | – | –
